Data published in patent US9394555B2, “Compositions comprising a polypeptide having cellulolytic enhancing activity and a dioxy compound and uses thereof” (priority 2010, dated 2016).

Experiments:
[1] = target: T1, Aspergillus oryzae CEL3A beta-glucosidase (Aspergillus oryzae, UniProt Q2UUD6); experiment: Variable pH PASC conversion assay (Examples 29, 30) without GH61 polypeptide; format: biochemical; conditions: gallic acid 0.2% w/w + Aspergillus oryzae CEL3A beta-glucosidase (10 mg/g), no GH61, 72 hours, 50° C.
T1 construct: made in house

[2] = target: Trichoderma reesei GH61B polypeptide (Trichoderma reesei, UniProt Q7Z9M7); experiment: Variable pH PASC conversion assay (Examples 29, 30) with Trichoderma reesei GH61B polypeptide; format: biochemical; conditions: gallic acid 0.2% w/w + Trichoderma reesei GH61B polypeptide (10 mg/g) + beta-glucosidase (10 mg/g), 72 hours, 50° C.
Chain of Trichoderma reesei GH61B polypeptide (Q7Z9M7 20-249): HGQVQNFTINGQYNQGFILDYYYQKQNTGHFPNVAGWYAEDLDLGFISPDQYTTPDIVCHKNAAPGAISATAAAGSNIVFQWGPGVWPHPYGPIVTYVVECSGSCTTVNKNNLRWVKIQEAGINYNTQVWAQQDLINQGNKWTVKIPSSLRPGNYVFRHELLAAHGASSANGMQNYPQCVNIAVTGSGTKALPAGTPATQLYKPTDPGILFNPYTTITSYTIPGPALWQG

T1 sequence (Q2UUD6 20-861): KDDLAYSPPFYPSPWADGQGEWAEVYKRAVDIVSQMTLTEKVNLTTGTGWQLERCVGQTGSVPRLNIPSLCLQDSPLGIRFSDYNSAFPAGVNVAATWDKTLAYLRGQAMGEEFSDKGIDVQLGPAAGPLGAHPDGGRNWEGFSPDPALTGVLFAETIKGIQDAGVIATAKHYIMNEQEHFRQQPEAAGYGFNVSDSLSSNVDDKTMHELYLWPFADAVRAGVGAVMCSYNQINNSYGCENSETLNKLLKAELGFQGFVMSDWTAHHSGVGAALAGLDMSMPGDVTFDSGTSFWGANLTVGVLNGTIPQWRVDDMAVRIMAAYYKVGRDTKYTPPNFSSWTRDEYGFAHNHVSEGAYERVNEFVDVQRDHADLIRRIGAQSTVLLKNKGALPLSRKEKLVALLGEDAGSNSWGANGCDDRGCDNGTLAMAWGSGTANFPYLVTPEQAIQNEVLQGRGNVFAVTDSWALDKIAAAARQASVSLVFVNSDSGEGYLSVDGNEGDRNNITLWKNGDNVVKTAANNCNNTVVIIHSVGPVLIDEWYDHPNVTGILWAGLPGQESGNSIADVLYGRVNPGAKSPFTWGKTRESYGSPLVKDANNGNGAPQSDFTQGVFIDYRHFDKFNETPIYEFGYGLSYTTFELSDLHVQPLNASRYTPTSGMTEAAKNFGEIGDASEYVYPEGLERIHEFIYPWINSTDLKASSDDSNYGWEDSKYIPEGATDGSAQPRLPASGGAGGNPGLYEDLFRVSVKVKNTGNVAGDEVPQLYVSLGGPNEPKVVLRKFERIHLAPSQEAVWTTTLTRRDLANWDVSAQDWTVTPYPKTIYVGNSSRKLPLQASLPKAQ

## O=C(O)c1cc(O)c(O)c(O)c1 [gallic acid]
[1]; pH 4
  conversion of phosphoric acid swollen cellulose: 1.6±0.2%
[1]; pH 5
  conversion of phosphoric acid swollen cellulose: 2.0±0.7%
[1]; pH 6
  conversion of phosphoric acid swollen cellulose: 1.2±0.5%
[1]; pH 7.5
  conversion of phosphoric acid swollen cellulose: 1.9±1.2%
[2]; pH 4
  conversion of phosphoric acid swollen cellulose: 13.6±0.2%
[2]; pH 5
  conversion of phosphoric acid swollen cellulose: 15.9±0.6%
[2]; pH 6
  conversion of phosphoric acid swollen cellulose: 12.7±0.4%
[2]; pH 7.5
  conversion of phosphoric acid swollen cellulose: 3.9±1.0%
